US10597388B2, “Pyridazinone herbicides” (FMC CORPORATION, priority 2014, dated 2020)

How the values were obtained:
Type in all cases: in vivo
[1] = tested on: barnyardgrass (Echinochloa crus-galli); experiment: Test A greenhouse herbicide test, pre- and postemergence
Description: (§1) Seeds of plant species selected from barnyardgrass (Echinochloa crus-galli), kochia (Kochia scoparia), ragweed (common ragweed, Ambrosia elatior), ryegrass, Italian (Italian ryegrass, Lolium multiflorum), crabgrass, large (large crabgrass, Digitaria sanguinalis), foxtail, giant (giant foxtail, Setaria faberii), momingglory (Ipomoea spp.), pigweed (Amaranthus retroflexus), velvetleaf (Abutilon theophrasti), wheat (Triticum aestivum), and corn (Zea mays) were planted into a blend of loam soil and sand and treated preemergence with a directed soil spray using test chemicals formulated in a non-phytotoxic solvent mixture which included a surfactant.
(§2) At the same time, plants selected from these crop and weed species and also blackgrass (Alopecurus myosuroides), and galium (catchweed bedstraw, Galium aparine) were planted in pots containing the same blend of loam soil and sand and treated with postemergence applications of test chemicals formulated in the same manner. Plants ranged in height from 2 to 10 cm and were in the one- to two-leaf stage for the postemergence treatment. Treated plants and untreated controls were maintained in a greenhouse for approximately 10 d, after which time all treated plants were compared to untreated controls and visually evaluated for injury. Plant response ratings, summarized in Table A, are based on a 0 to 100 scale where 0 is no effect and 100 is complete control. A dash (-) response means no test result.

[2] = tested on: corn (Zea mays); experiment: as above; details: Postemergence; for Corn plant response rating: 0 to 100 scale, 0 is no effect, 100 is complete control
Description: as §1, §2

[3] = tested on: foxtail, giant (giant foxtail, Setaria faberii); experiment: as above
Description: as §1, §2

[4] = tested on: kochia (Kochia scoparia); experiment: as above
Description: as §1, §2

[5] = tested on: pigweed (Amaranthus retroflexus); experiment: as above
Description: as §1, §2

[6] = tested on: ragweed (common ragweed, Ambrosia elatior); experiment: as above
Description: as §1, §2

[7] = tested on: ryegrass, Italian (Italian ryegrass, Lolium multiflorum); experiment: as above
Description: as §1, §2

[8] = tested on: wheat (Triticum aestivum); experiment: as above; details: Postemergence; for Wheat plant response rating: 0 to 100 scale, 0 is no effect, 100 is complete control
Description: as §1, §2

[9] = tested on: blackgrass (Alopecurus myosuroides); experiment: Test A greenhouse herbicide test, postemergence; details: for Blackgrass plant response rating: 0 to 100 scale, 0 is no effect, 100 is complete control
Description: as §2

[10] = tested on: galium (catchweed bedstraw, Galium aparine); experiment: Test A greenhouse herbicide test, postemergence; details: for Galium plant response rating: 0 to 100 scale, 0 is no effect, 100 is complete control
Description: as §2

[11] = Postemergence, 125 g ai/ha, 0 to 100 scale where 0 is no effect and 100 is complete control
[12] = Postemergence, 500 g ai/ha, 0 to 100 scale, 0 is no effect, 100 is complete control
[13] = Preemergence, 125 g ai/ha, 0 to 100 scale where 0 is no effect and 100 is complete control
[14] = Preemergence, 500 g ai/ha, 0 to 100 scale, 0 no effect, 100 complete control
[15] = 125 g ai/ha, 0 to 100 scale where 0 is no effect and 100 is complete control
[16] = Preemergence, 500 g ai/ha, 0 to 100 scale where 0 is no effect and 100 is complete control
[17] = Postemergence, 500 g ai/ha, visual rating after approx. 10 d, 0 to 100 scale (0 no effect, 100 complete control)
[18] = 500 g ai/ha, visual rating after approx. 10 d, 0 to 100 scale (0 no effect, 100 complete control)

Row | SMILES | Plant response rating, Barnyardgrass [1, 11] | Barnyardgrass plant response rating [1, 12] | Barnyardgrass plant response rating [1, 13] | Plant response rating, Barnyardgrass [1, 14] | Plant response rating, Corn [2, 15] | Corn plant response rating ([2]; 500 g ai/ha) | Plant response rating, Foxtail, Giant [3, 11] | Foxtail, Giant plant response rating [3, 12] | Foxtail, Giant plant response rating [3, 13] | Plant response rating, Kochia [4, 11] | Kochia plant response rating [4, 12] | Kochia plant response rating [4, 13] | Plant response rating, Pigweed [5, 11] | Pigweed plant response rating [5, 12] | Pigweed plant response rating [5, 13] | Plant response rating, Ragweed [6, 11] | Plant response rating, Ryegrass, Italian [7, 11] | Plant response rating, Wheat [8, 15] | Plant response rating, Blackgrass [9, 15] | Plant response rating, Galium [10, 15] | other results
1 | CCc1ccc2ccccc2c1-c1c(OC(=O)OC(C)C)c(C)nn(C)c1=O [Compound 39] | 0 | 10 | 0 | 10 | 0 | 0 | 0 | 60 | 0 | 30 | 30 | 0 | 50 | 80 | 80 | 50 | 90 | 0 | 30 | 90 | Plant response rating, Foxtail, Giant [3, 14]: 60; Plant response rating, Kochia [4, 14]: 0; Plant response rating, Pigweed [5, 14]: 80; Ragweed plant response rating [6, 12]: 90; Ragweed plant response rating [6, 13]: 10; Plant response rating, Ragweed [6, 14]: 70; Ryegrass, Italian plant response rating [7, 12]: 60; Ryegrass, Italian plant response rating [7, 13]: 40; Plant response rating, Ryegrass, Italian [7, 14]: 50; Wheat plant response rating ([8]; 500 g ai/ha): 10; Blackgrass plant response rating ([9]; 500 g ai/ha): 70; Galium plant response rating ([10]; 500 g ai/ha): 100
2 | Cc1ccc2ccccc2c1-c1c(OC(=O)C2CC2)c(C)nn(C)c1=O [Compound 76] | 0 | 30 | 0 | 30 | 0 | 0 | 0 | 20 | 0 | 20 | 40 | 0 | 10 | 20 | 20 | 0 | 40 | 0 | 0 | 70 | Plant response rating, Foxtail, Giant [3, 16]: 20; Plant response rating, Kochia [4, 16]: 0; Plant response rating, Pigweed [5, 16]: 50; Ragweed plant response rating [6, 12]: 20; Ragweed plant response rating [6, 13]: 0; Plant response rating, Ragweed [6, 16]: 50; Ryegrass, Italian plant response rating [7, 12]: 80; Ryegrass, Italian plant response rating [7, 13]: 50; Plant response rating, Ryegrass, Italian [7, 16]: 70; Wheat plant response rating ([8]; 500 g ai/ha): 0; Blackgrass plant response rating ([9]; 500 g ai/ha): 10; Galium plant response rating ([10]; 500 g ai/ha): 80
3 | COc1nn(C)c(=O)c(-c2c(C)sc3ccccc23)c1OC(C)=O [Compound 141] | 20 |  | 50 |  | 0 |  | 20 |  | 30 | 10 |  | 0 | 0 |  | 40 | 60 | 70 | 0 | 0 | 70 | Plant response rating, Barnyardgrass [1, 17]: 50; Plant response rating, Barnyardgrass [1, 16]: 90; Plant response rating, Corn [2, 18]: 0; Plant response rating, Foxtail, Giant [3, 17]: 70; Plant response rating, Foxtail, Giant [3, 16]: 70; Plant response rating, Kochia [4, 17]: 30; Plant response rating, Kochia [4, 16]: 60; Plant response rating, Pigweed [5, 17]: 30; Plant response rating, Pigweed [5, 16]: 60; Plant response rating, Ragweed [6, 17]: 40; Plant response rating, Ragweed [6, 16]: 60; Plant response rating, Ryegrass, Italian [7, 17]: 90; Plant response rating, Ryegrass, Italian [7, 16]: 80; Plant response rating, Wheat [8, 18]: 0; Plant response rating, Blackgrass [9, 18]: 50; Plant response rating, Galium [10, 18]: 90
